Entries after “also recorded” stand apart in the source; their conditions may differ.
Legend:
MDA-MB-231 cells = system: MDA-MB-231 cells; design: method as in PMID 35008392; details: cited from earlier work
[1] = Time activity analysis of organ activity (biodistribution, therapy study and SPECT/CT data pooled); type: in vivo, NOD/SCID mice
Experimental: For biodistribution, animals imaged at 4 h p.i. were killed 24 h p.i., while the ones scanned 24 h p.i. were killed 5 days p.i.. Subsequently, organs were excised, weighed, and assayed for radioactivity in a gamma counter. Mean tumour and organ uptake was determined from decay-corrected tissue radioactivity normalized to injected dose and tissue sample weight (%ID/g tissue wet weight).
All statistical analyses were performed using the Graph-Pad Prism software (Version 9.1.1). Biodistribution data is expressed as mean ± standard deviation. Kaplan–Meier Survival curve was analysed using survival analysis (Log rank Mantel-Cox test). The data points of the normalized tumour volume as a function of the time of the groups (Control, ^125I-PARPi, Control—excluded ulcers, ^125I-PARPi—excluded ulcers) were subjected to nonlinear regression analysis using the exponential growth formula Y = Y0*exp(k*x) (Malthusian). Accordingly, the doubling time is equal to ln(2)/k. […] During regression analysis, the best-fit value k was compared between two datasets each using the extra sum-of-squares F test, testing the null hypothesis that k is the same for both datasets. Time activity analysis was performed using nonlinear exponential decay curve fitting and area under the curve was computed using the Graph-Pad Prism software. The area under the curve is expressed as total peak area ± standard error. For statistical analysis of fluorescent signals, unpaired t-test was used.
Auger emitter-based therapeutic effect was assessed upon application of [^125I]PARPi-01 in 4 doses (8.15 ± 2.96 MBq/dose) with 10 days between each dose in subcutaneous MDA-MB-231 models (Fig. 3A). The fractionated therapy was designed based on two recent publications. In the study by Riad et al., a good tumour response without severe toxicity in normal tissue after application of 30 MBq ^125I-labeled PARPi was shown. […] Furthermore we observed DNA damage upon low dose PARPi application in our in-vitro experiments in the MDA-MB-231 cell line. […] To avoid any handling bias in calliper measurements, only CT-image-based tumour growth was analysed. […] A significant delay in tumour growth was observed upon [^125I]PARPi-01 treatment showing doubling time of 14.2 d (95% CI: 12.6 d to 16.1 d) (Fig. 3B, Additional file 1: Fig. S3). Comparing the treatment group with the control (with and without exclusion of animals with ulcers) we could see a significant difference between the k values (P < 0.0001 and P = 0.0038, respectively) and thus also the doubling time. […] A significant portion of the mice in both the control group and the therapy group were sacrificed due to reaching humane endpoints not related to tumour size. 2 mice were sacrificed due to ascites and 10 mice were sacrificed due to ulcer formation on the tumour site. […] Considering only this selection of mice, median survival time was 35 and 38 for control and therapy mice, respectively. Since, as shown for ^177Lu labelled tracer, data (SUV, concentration) calculated based on SPECT images correlate with those obtained by gamma counting, liver, tumour, and muscle were excised for subsequent gamma counter measurements. To obtain the time activity curve and tracer retention time in each organ, the decay corrected activity (%ID/g) from the biodistribution study, therapy study and also organ activity calculated from SPECT/CT images at 4 h and 24 h p.i. were taken together and plotted over time for liver (Fig. 3D), tumour (Fig. 3E) and muscle (Fig. 3F). Tracer uptake in liver was at a peak of 3.84%ID/g at 4 h p.i. and dropped over time to 0.411%ID/g (8d p.i.). […] The peak uptake of muscle was only 0.186%ID/g at 4 h p.i. and decreased to 0.002%ID/g at 8 d p.i. The overall area under the curve (retention time) in tumour was 26.53 ± 2.35 h/g as opposed to a liver retention of 284 ± 45.02 h/g, whereas the retention time of muscle was only 5.918 ± 0.98 h/g.

[2] = system: MDA-MB-231 tumour tissue, liver, thyroid; test: Apoptosis (TUNEL) staining of ex vivo tissue sections; type: in vivo, NOD/SCID mice
Experimental: Organs excised and retrieved from control (n = 3) and therapy mice (n = 3) were fixed with 4% PFA overnight at 4 °C. For cryopreservation, the organs were kept for 2–3 days at 4 °C in 30% sucrose Cryosections (6 µm) of excised and preserved organs were made using a cryostat (Leica, CM3050S). For TUNEL fluorescence quantification, therapy mice (n = 3) and control mice (n = 3) slices were stained simultaneously. The TUNEL staining kit (Roche # 11684795910) was used and protocol was followed as mentioned in the staining kit. Tissues were washed with PBS and permeabilised with 0.1 % Triton-X in 0.1 % […] on ice for 2 min. Following permeabilization, sections were incubated with TUNEL reaction mixture (Fluorescence labelled Terminal deoxynucleotidyl transferase enzyme dissolved in nucleotide buffer) for 1 h at 37 °C. After PBS wash, the cells were mounted with RotiMount® Vectashield containing DAPI and analysed using fluorescence microscopy (Zen Lite, Carl Zeiss). The images were processed and quantified using CellProfiler 3.0 software.

MCF-7 = test: Nuclear uptake, subcellular fractionation with gamma counter; type: cell-based; details: 24 h, 1 MBq/10^6 cells
Experimental: (§1) Breast cancer cells were seeded (0.5 × 10^6) in a 12-well plate and treated with [^125I]PARPi-01 (1 MBq/10^6 cells) for 24 h. Subcellular fractionation was performed using a Subcellular Fractionation kit (ThermoFischer inc., #78840. Protein concertation was assessed using BCA assay. SDS-PAGE was performed using the fractions (30 µg/lane) and Any KD Mini-Protean TGX gels (90 V for 1.5 h). The separated proteins were transferred to PVDF membranes using a wet blotting (60 V, 2 h) technique. The blots were then blocked with 1% Milk/TBST and incubated with a primary antibody (anti-PARP1 (1:1000); Abcam ab227244; anti-GAPDH (1:4000); cell signalling 14C10, or anti-Histon H3 1:1000) Abcam ab1791). For the phosphorimager analysis, after blotting, the blots were sandwiched with a Fujifilm Imaging plate for Bioanalyzer (BAS-MS 2040), and incubated overnight, and the protein bound activity was imaged using a phosphorimager (Typhoon FLA 7000 version 1.2). To assess the tracer uptake, both fractions were measured using a gamma counter (Wizard^2, Perkin Elmer, USA).

MDA-MB-231 = test: as above; type: cell-based; details: 24 h, 1 MBq/10^6 cells
Experimental: as §1

MDA-MB-468 = test: as above; type: cell-based; details: 24 h, 1 MBq/10^6 cells
Experimental: as §1

[3] = total peak area ± standard error

For `O=C(c1ccc([125I])cc1)N1CCN(C(=O)c2cc(Cc3n[nH]c(=O)c4ccccc34)ccc2F)CC1` [[^125I]PARPi-01], the “level of apoptosis induction” value (MDA-MB-231 cells) is listed as “remained comparable low”, the “tracer accumulation in tumour” value ([1]; 4 h p.i.) is listed as 0.7219 %ID/g and the “tracer uptake in liver” value ([1]; 4 h p.i. (peak)) is listed as 3.84 %ID/g. The uptake of muscle ([1]; 4 h p.i. (peak)) was 0.186 %ID/g, the “tracer accumulation in tumour” value ([1]; 24 h) was 0.2 % ID/g and the “tracer accumulation in tumour” value ([1]; 8 days) was 0.02%. The “tracer uptake in liver” value ([1]; 8 d p.i.) was 0.411 %ID/g, the uptake of muscle ([1]; 8 d p.i.) was 0.002 %ID/g and the “area under the curve (retention time) in liver” value [1, 3] was 284 ± 45.02 h/g. The “area under the curve (retention time) in muscle” value [1, 3] was 5.918 ± 0.98 h/g, the “area under the curve (retention time) in tumour” value [1, 3] was 26.53 ± 2.35 h/g and the “apoptosis in liver or thyroid” value ([2]; therapy group) was “did not show any noticeable apoptosis; also recorded: no noticeable apoptosis”. The “percentage of nuclei in tumour positive for apoptosis” value ([2]; therapy group n = 3, P < 0.05 vs control) was 52.5 ± 19.0%, the “nuclear tracer localization, of total tracer” value (from here on “nuclear tracer localization”) (MCF-7) was “more than 40%” and the “nuclear tracer localization” value (MDA-MB-231) was > 75%. For the same molecule, the “nuclear tracer localization” value (MDA-MB-468) was > 75%.
